{"source": "patent EP0359821A1", "about": "“METHOD OF STERILIZING PLANT ANTHERS” (priority 1988, dated 1989)", "key": {"[1]": {"system": "Diploider Roggen Sorte Gibrid 340/65", "assay": "Field trial of gametocidal activity, diploid rye Gibrid 340/65", "conditions": "Gibrid 340/65 (text: 312/65), 1% aqueous emulsion, 10 kg/ha"}, "Tritikale Sorte PRAG I09": {"system": "Tritikale Sorte PRAG I09", "assay": "Field trial of gametocidal activity, triticale", "type": "in vivo", "conditions": "1% aqueous emulsion, 12 kg/ha; for Prozentsatz des Ansetzens bei freier Bestäubung: control = 100", "from_the_text": "(§1) Bei Weizen und Tritikale werden Einzelisolatoren verwendet.\nPflanzen von Tritikale Sorte PRAG I09 werden in der V. und VI.\nDer Verbrauch an Sterilisationsmittel beträgt 12 kg/ha."}, "[2]": {"system": "Hirse Sorte Mironovskoe 94", "assay": "Field trial of gametocidal activity, millet Mironovskoe 94", "type": "in vivo", "conditions": "1% aqueous emulsion, 10 kg/ha; for Anzahl von Körnern der Rispe bei freier Bestäubung / Anzahl von Körnern der Rispe im Isolator / percent pollen sterility at 10000 g/ha: V. or VI. period; for percent pollen sterility at 10000 g/ha: read-out: Prozentsatz der Sterilität; for response vs control in vivo at 10000 g/ha: control = 100, read-out: Prozentsatz des Ansetzens bei freier Bestäubung"}, "[3]": {"system": "Tetraploider Roggen Sorte Gibrid 67", "assay": "Field trial of gametocidal activity, tetraploid rye Gibrid 67", "type": "in vivo", "conditions": "1% aqueous emulsion, 10 kg/ha, V. or VI. period", "from_the_text": "as §1\nPflanzen von tetraploidem Roggen Sorte Gibrid 67 werden in der V. oder VI."}, "[4]": {"system": "Tetraploider Roggen Sorte Ukrainskaya tetra", "assay": "Field trial of gametocidal activity, tetraploid rye Ukrainskaya tetra", "type": "in vivo", "conditions": "1% aqueous emulsion, 10 kg/ha"}, "[5]": {"system": "Sommerweizen Sorte Moskovskaya 35", "assay": "Field trial of gametocidal activity, spring wheat", "type": "in vivo, Weizen", "conditions": "1% aqueous emulsion, 10 kg/ha"}, "in vivo": {"assay": "in vivo", "conditions": "mouse"}, "[6]": {"system": "Diploider Roggen Sorte Gibrid 1864/74", "assay": "Field trial of gametocidal activity, diploid rye Gibrid 1864/74", "conditions": "1% aqueous emulsion, 10 kg/ha"}, "[7]": {"system": "Tetraploider Roggen Sorte Belta", "assay": "Field trial of gametocidal activity, tetraploid rye Belta", "type": "in vivo", "conditions": "1% aqueous emulsion, 10 kg/ha; for response vs control in vivo at 10000 g/ha: control = 100, read-out: Prozentsatz des Ansetzens bei freier Bestäubung"}, "[8]": {"system": "Hirse Sorte K-9693 Kormovoe 1", "assay": "Field trial of gametocidal activity, millet K-9693 Kormovoe 1", "conditions": "1% aqueous emulsion, 10 kg/ha"}, "[9]": {"system": "Winterweizens Sorte Mironovskaya 808", "assay": "Field trial of gametocidal activity (anther sterilisation), winter wheat", "type": "in vivo, Weizen", "conditions": "2% aqueous emulsion, 20 kg/ha"}, "[10]": {"system": "Diploider Roggen Sorte Chulpan", "assay": "Field trial of gametocidal activity, diploid rye Chulpan", "type": "in vivo", "from_the_text": "as §1\nPflanzen von diploidem Roggen Sorte Chulpan werden in der V. oder VI.\nDer Verbrauch an Sterilisationsmitteln beträgt 10 kg/ha."}, "[11]": {"system": "Tetraploider Roggen Sorte Jubileinaya", "assay": "Field trial of gametocidal activity, tetraploid rye Jubileinaya", "conditions": "1% aqueous emulsion, 10 kg/ha"}, "[12]": {"conditions": "control = 100, read-out: Prozentsatz des Ansetzens bei freier Bestäubung"}, "[13]": {"conditions": "V. or VI. period of organogenesis"}, "[14]": {"conditions": "Chulpan, single compounds, 1% aqueous emulsion, 10 kg/ha, V. or VI. period"}}, "note": "Where two headings read alike, the source gives them in different places.", "data": [{"smiles": "CCC(CO)(CO)CO", "note": "[Beispiel 39, Etriol]", "values": [{"measurement": "Anzahl von Körnern der Ähre bei freier Bestäubung", "setting": "[1]; V. and VI. periods", "result": "53,2"}, {"measurement": "Anzahl von Körnern der Ähre im Isolator", "setting": "[1]; V. and VI. periods", "result": "1,6"}, {"measurement": "Prozentsatz der Sterilität", "setting": "[1]; V. and VI. periods", "result": "96,7%"}, {"measurement": "Prozentsatz des Ansetzens bei freier Bestäubung", "setting": "[1]; control = 100", "result": "98,5%"}, {"measurement": "Anzahl von Körnern der Ähre bei freier Bestäubung", "setting": "Tritikale Sorte PRAG I09; V. and VI. period", "result": "68,2"}, {"measurement": "Anzahl von Körnern der Ähre im Isolator", "setting": "Tritikale Sorte PRAG I09; V. and VI. period", "result": "0,7"}, {"measurement": "Prozentsatz der Sterilität", "setting": "Tritikale Sorte PRAG I09; V. and VI. period", "result": "99,0%"}, {"measurement": "Prozentsatz des Ansetzens bei freier Bestäubung", "setting": "Tritikale Sorte PRAG I09", "result": "98,8%"}, {"measurement": "Anzahl von Körnern der Rispe bei freier Bestäubung", "setting": "[2]", "result": "355,1"}, {"measurement": "Anzahl von Körnern der Rispe im Isolator", "setting": "[2]", "result": "0,0"}, {"measurement": "percent pollen sterility at 10000 g/ha", "setting": "[2]", "result": 100, "unit": "%"}, {"measurement": "response vs control in vivo at 10000 g/ha", "setting": "[2]", "result": 93.6, "unit": "%"}]}, {"smiles": "O=C(O)c1ccccc1O", "note": "[Beispiel 62, Äthanolaminsalz der Salizylsäure]", "values": [{"measurement": "Anzahl von Körnern der Ähre bei freier Bestäubung", "setting": "[3]", "result": "40,8"}, {"measurement": "Anzahl von Körnern der Ähre im Isolator", "setting": "[3]", "result": "0,0"}]}, {"smiles": "O=C(O)c1cc(Br)ccc1O", "note": "[Beispiel 18, Äthanolaminsalz der 5-Bromsalizylsäure]", "values": [{"measurement": "Prozentsatz der Sterilität", "setting": "[4]; V. or VI. period", "result": "99,8%"}, {"measurement": "Prozentsatz des Ansetzens bei freier Bestäubung", "setting": "[4]; control = 100", "result": "94,7%"}, {"measurement": "Anzahl von Körnern der Ähre bei freier Bestäubung", "setting": "[5]; V. period", "result": "27,9"}, {"measurement": "Anzahl von Körnern der Ähre im Isolator", "setting": "[5]; V. period", "result": "1,8"}, {"measurement": "percent sterility at 10000 g/ha", "setting": "[5]; V. period, read-out: Prozentsatz der Sterilität", "result": 93.4, "unit": "%"}, {"measurement": "response vs control in vivo at 10000 g/ha", "setting": "[5]; [12]", "result": 102, "unit": "%"}, {"measurement": "Anzahl von Körnern der Rispe bei freier Bestäubung", "setting": "[2]", "result": "320,7"}, {"measurement": "Anzahl von Körnern der Rispe im Isolator", "setting": "[2]", "result": "0,0"}, {"measurement": "percent pollen sterility at 10000 g/ha", "setting": "[2]", "result": 100, "unit": "%"}, {"measurement": "response vs control in vivo at 10000 g/ha", "setting": "[2]", "result": 84.5, "unit": "%"}]}, {"smiles": "OCCOc1ccc(F)cc1", "note": "[Beispiel 2]", "values": [{"measurement": "LD50", "setting": "in vivo; LD50, weisse Mäuse", "result": 350, "unit": "mg/kg"}, {"measurement": "Anzahl von Körnern der Ähre bei freier Bestäubung", "setting": "[6]; V. period", "result": "42,0"}, {"measurement": "Anzahl von Körnern der Ähre im Isolator", "setting": "[6]; V. period", "result": "0,0"}, {"measurement": "Prozentsatz der Sterilität", "setting": "[6]; V. period", "result": 100, "unit": "%"}, {"measurement": "Prozentsatz des Ansetzens bei freier Bestäubung", "setting": "[6]; control = 100", "result": "87,9%"}, {"measurement": "Anzahl von Körnern der Ähre im Isolator", "setting": "[7]; V. or VI. period", "result": "0,0"}, {"measurement": "response vs control in vivo at 10000 g/ha", "setting": "[7]", "result": 92.8, "unit": "%"}, {"measurement": "Anzahl von Körnern der Ähre bei freier Bestäubung", "setting": "Tritikale Sorte PRAG I09; V. and VI. period", "result": "62,3"}, {"measurement": "Anzahl von Körnern der Ähre im Isolator", "setting": "Tritikale Sorte PRAG I09; V. and VI. period", "result": "0,0"}, {"measurement": "Prozentsatz des Ansetzens bei freier Bestäubung", "setting": "Tritikale Sorte PRAG I09", "result": "90,3%"}, {"measurement": "Anzahl von Körnern der Rispe bei freier Bestäubung", "setting": "[8]; V. or VI. period", "result": "128,7"}, {"measurement": "Anzahl von Körnern der Rispe im Isolator", "setting": "[8]; V. or VI. period", "result": "0,0"}, {"measurement": "Prozentsatz der Sterilität", "setting": "[8]; V. or VI. period", "result": 100, "unit": "%"}, {"measurement": "Prozentsatz des Ansetzens bei freier Bestäubung", "setting": "[8]; control = 100", "result": "87,7%"}, {"measurement": "Anzahl von Körnern der Ähre bei freier Bestäubung", "setting": "[9]; [13]", "result": "27,4"}, {"measurement": "Anzahl von Körnern der Ähre im Isolator", "setting": "[9]; [13]", "result": "0,0"}, {"measurement": "response vs control in vivo at 20000 g/ha", "setting": "[9]; [12]", "result": 67.7, "unit": "%"}, {"measurement": "Anzahl von Körnern der Rispe bei freier Bestäubung", "setting": "[2]", "result": "311,4"}, {"measurement": "Anzahl von Körnern der Rispe im Isolator", "setting": "[2]", "result": "0,0"}, {"measurement": "percent pollen sterility at 10000 g/ha", "setting": "[2]", "result": 100, "unit": "%"}, {"measurement": "response vs control in vivo at 10000 g/ha", "setting": "[2]", "result": 82, "unit": "%"}, {"measurement": "Anzahl von Körnern der Ähre bei freier Bestäubung", "setting": "[10]; [14]", "result": "48,2"}, {"measurement": "Anzahl von Körnern der Ähre im Isolator", "setting": "[10]; [14]", "result": "0,0"}, {"measurement": "percent sterility at 10000 g/ha", "setting": "[10]; Chulpan, single compounds, 1% aqueous emulsion, 10 kg/ha, V. or VI. period, read-out: Prozentsatz der Sterilität", "result": 100, "unit": "%"}, {"measurement": "response vs control in vivo at 10000 g/ha", "setting": "[10]; read-out: Prozentsatz des Ansetzens bei freier Bestäubung, Chulpan, single compounds, 1% aqueous emulsion, 10 kg/ha, control = 100", "result": 85, "unit": "%"}]}, {"smiles": "O=C(O)c1ccccc1C(=O)O", "note": "[Beispiel 55, Phthalsäuremonoäthanolaminsalz]", "values": [{"measurement": "LD50", "setting": "in vivo", "result": 1100, "unit": "mg/kg"}, {"measurement": "Anzahl von Körnern der Ähre bei freier Bestäubung", "setting": "[11]; V. or VI. period", "result": "46,0"}, {"measurement": "Anzahl von Körnern der Ähre im Isolator", "setting": "[11]; V. or VI. period", "result": "0,0"}, {"measurement": "Prozentsatz des Ansetzens bei freier Bestäubung", "setting": "[11]; control = 100", "result": "95,0%"}, {"measurement": "Anzahl von Körnern der Ähre bei freier Bestäubung", "setting": "[7]; V. or VI. period", "result": "44,0"}, {"measurement": "Anzahl von Körnern der Ähre im Isolator", "setting": "[7]; V. or VI. period", "result": "0,3"}, {"measurement": "percent sterility at 10000 g/ha", "setting": "[7]; V. or VI. period, read-out: Prozentsatz der Sterilität", "result": 99.3, "unit": "%"}, {"measurement": "response vs control in vivo at 10000 g/ha", "setting": "[7]", "result": 99.3, "unit": "%"}, {"measurement": "Anzahl von Körnern der Rispe bei freier Bestäubung", "setting": "[2]", "result": "350,9"}, {"measurement": "Anzahl von Körnern der Rispe im Isolator", "setting": "[2]", "result": "0,0"}, {"measurement": "percent pollen sterility at 10000 g/ha", "setting": "[2]", "result": 100, "unit": "%"}, {"measurement": "response vs control in vivo at 10000 g/ha", "setting": "[2]", "result": 92.5, "unit": "%"}, {"measurement": "Anzahl von Körnern der Ähre bei freier Bestäubung", "setting": "[10]; [14]", "result": "55,6"}, {"measurement": "Anzahl von Körnern der Ähre im Isolator", "setting": "[10]; [14]", "result": "3,1"}, {"measurement": "pest or weed control at 10000 g/ha", "setting": "[10]; read-out: Prozentsatz der Sterilität", "result": 94, "unit": "%"}, {"measurement": "response vs control in vivo at 10000 g/ha", "setting": "[10]; read-out: Prozentsatz des Ansetzens bei freier Bestäubung", "result": 98.1, "unit": "%"}]}]}
